Where “and” joins values, the source holds several entries; their conditions need not be identical. Identical values can stand only once. Numbers after ± are expanded uncertainties.
Tests used:
[1] = molar heat capacity at constant pressure; details: 101.33 kPa, Small sample (50 mg) DSC
[2] = Molar enthalpy of transition or fusion; details: Crystal 3; DSC
[3] = for vapor or sublimation pressure: Calculated from knudsen effusion weight loss; for Triple point temperature: DTA

O=C1NC(=O)C(=O)N1 [parabanic acid]
Details | molar heat capacity at constant pressure [J/K/mol] | vapor or sublimation pressure
[1], 263.15 K, Crystal 3 | 153.78 ± 6.5 | –
[1], 265.15 K, Crystal 3 | 154.68 ± 6.6 | –
[1], 270.15 K, Crystal 3 | 157.16 ± 6.7 | –
[1], 273.15 K, Crystal 3 | 158.53 ± 6.7 | –
[1], 275.15 K, Crystal 3 | 159.48 ± 6.8 | –
[1], 280.15 K, Crystal 3 | 161.53 ± 6.8 | –
[1], 285.15 K, Crystal 3 | 163.59 ± 6.9 | –
[1], 290.15 K, Crystal 3 | 165.7 ± 7 | –
[1], 295.15 K, Crystal 3 | 167.6 ± 7.1 | –
[1], 300.15 K, Crystal 3 | 169.81 ± 7.2 | –
[1], 305.15 K, Crystal 3 | 172.08 ± 7.3 | –
[1], 310.15 K, Crystal 3 | 174.5 ± 7.4 | –
[1], 315.15 K, Crystal 3 | 177.24 ± 7.5 | –
[1], 320.15 K, Crystal 3 | 179.33 ± 7.6 | –
[1], 325.15 K, Crystal 3 | 180.62 ± 7.7 | –
[1], 330.15 K, Crystal 3 | 182.52 ± 7.7 | –
[1], 335.15 K, Crystal 3 | 184.84 ± 7.8 | –
[1], 340.15 K, Crystal 3 | 187.21 ± 7.9 | –
[1], 345.15 K, Crystal 3 | 189.26 ± 8 | –
[1], 350.15 K, Crystal 3 | 191.69 ± 8.1 | –
[1], 355.15 K, Crystal 3 | 193.8 ± 8.2 | –
[1], 360.15 K, Crystal 3 | 196.01 ± 8.3 | –
[1], 365.15 K, Crystal 3 | 197.59 ± 8.4 | –
[1], 370.15 K, Crystal 3 | 200.07 ± 8.5 | –
[1], 375.15 K, Crystal 3 | 201.42 ± 8.6 | –
[1], 380.15 K, Crystal 3 | 203.59 ± 8.6 | –
[1], 400.15 K, Crystal 2 | 211.5 ± 9 | –
[1], 405.15 K, Crystal 2 | 213.6 ± 9.1 | –
[1], 410.15 K, Crystal 2 | 215.93 ± 9.2 | –
[1], 415.15 K, Crystal 2 | 216.68 ± 9.2 | –
[1], 420.15 K, Crystal 2 | 218.83 ± 9.3 | –
[1], 425.15 K, Crystal 2 | 220.28 ± 9.3 | –
[1], 430.15 K, Crystal 2 | 222.89 ± 9.5 | –
[1], 435.15 K, Crystal 2 | 225.62 ± 9.6 | –
[1], 440.15 K, Crystal 2 | 227.43 ± 9.7 | –
[1], 445.15 K, Crystal 2 | 229.93 ± 9.8 | –
[1], 450.15 K, Crystal 2 | 232.06 ± 9.8 | –
[1], 455.15 K, Crystal 2 | 234.43 ± 9.9 | –
[1], 460.15 K, Crystal 2 | 236.96 ± 10 | –
[1], 465.15 K, Crystal 2 | 239.26 ± 10 | –
[1], 470.15 K, Crystal 2 | 241.31 ± 10 | –
[1], 473.15 K, Crystal 2 | 243.13 ± 10 | –
[3], 381.17 K, Crystal 3 | – | 0.0001133 ± 2e-05 kPa and 0.0001078 ± 2e-05 kPa
[3], 383.17 K, Crystal 3 | – | 0.0001373 ± 2.1e-05 kPa and 0.0001334 ± 2.1e-05 kPa
[3], 385.18 K, Crystal 3 | – | 0.0001672 ± 2.1e-05 kPa and 0.0001691 ± 2.1e-05 kPa and 0.000159 ± 2.1e-05 kPa
[3], 387.17 K, Crystal 3 | – | 0.0001972 ± 2.1e-05 kPa [middle of 4 runs]
[3], 389.17 K, Crystal 3 | – | 0.0002355 ± 2.2e-05 kPa and 0.0002336 ± 2.2e-05 kPa and 0.0002271 ± 2.2e-05 kPa
[3], 391.18 K, Crystal 3 | – | 0.000285 ± 2.2e-05 kPa and 0.000287 ± 2.2e-05 kPa
[3], 393.18 K, Crystal 2 | – | 0.0003353 ± 2.3e-05 kPa and 0.0003334 ± 2.3e-05 kPa
[3], 395.17 K, Crystal 2 | – | 0.0004133 ± 2.5e-05 kPa and 0.0004042 ± 2.5e-05 kPa
[3], 397.16 K, Crystal 2 | – | 0.0004877 ± 2.7e-05 kPa
[3], 397.18 K, Crystal 2 | – | 0.000484 ± 2.7e-05 kPa
[3], 399.17 K, Crystal 2 | – | 0.0005715 ± 2.9e-05 kPa
[3], 401.18 K, Crystal 2 | – | 0.0006635 ± 3.1e-05 kPa
[3], 403.17 K, Crystal 2 | – | 0.0008169 ± 3.5e-05 kPa
[3], 405.2 K, Crystal 2 | – | 0.0009469 ± 3.9e-05 kPa and 0.0009581 ± 3.9e-05 kPa
[3], 406.17 K, Crystal 2 | – | 0.001047 ± 8.2e-05 kPa and 0.001039 ± 8.1e-05 kPa

Details | Molar enthalpy of transition or fusion [kcal/mol]
[2] | 0.502 ± 0.191

[3]
Details | Triple point temperature [K]
Crystal 1 | 520 ± 3
Crystal 2 | 509.8 ± 3
Crystal 3 | 392.3 ± 3.2

Reference: the NIST ThermoML archive (doi:10.1016/j.jct.2008.05.006)
